Tests used:
BdorOR88a/BdorOrco = target: T1, BdorOR88a/BdorOrco (Bactrocera dorsalis, UniProt A0A0G2UKI5); experiment: two-electrode voltage clamp, Xenopus oocytes; format: cell-based
T1 construct: gene OR88a; full-length OR88a (1,245 nt, 414 aa) co-expressed with BdorOrco from pCS2+ cRNAs in Xenopus laevis oocytes; with Odorant receptor coreceptor
T1 sequence (A0A0G2UKI5 1-414): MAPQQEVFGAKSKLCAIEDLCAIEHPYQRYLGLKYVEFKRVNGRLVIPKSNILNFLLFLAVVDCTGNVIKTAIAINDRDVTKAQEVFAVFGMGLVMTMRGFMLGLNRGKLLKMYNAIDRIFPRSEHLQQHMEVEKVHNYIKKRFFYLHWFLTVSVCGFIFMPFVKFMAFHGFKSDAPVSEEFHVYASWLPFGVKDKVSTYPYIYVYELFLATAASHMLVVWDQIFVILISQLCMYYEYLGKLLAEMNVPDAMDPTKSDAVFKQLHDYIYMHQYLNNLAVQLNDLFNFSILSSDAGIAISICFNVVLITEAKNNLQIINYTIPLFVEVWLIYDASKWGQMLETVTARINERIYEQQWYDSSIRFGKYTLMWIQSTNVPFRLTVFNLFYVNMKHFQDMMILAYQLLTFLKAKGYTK
T1 sequence (B2Z9Z0 1-473 partner): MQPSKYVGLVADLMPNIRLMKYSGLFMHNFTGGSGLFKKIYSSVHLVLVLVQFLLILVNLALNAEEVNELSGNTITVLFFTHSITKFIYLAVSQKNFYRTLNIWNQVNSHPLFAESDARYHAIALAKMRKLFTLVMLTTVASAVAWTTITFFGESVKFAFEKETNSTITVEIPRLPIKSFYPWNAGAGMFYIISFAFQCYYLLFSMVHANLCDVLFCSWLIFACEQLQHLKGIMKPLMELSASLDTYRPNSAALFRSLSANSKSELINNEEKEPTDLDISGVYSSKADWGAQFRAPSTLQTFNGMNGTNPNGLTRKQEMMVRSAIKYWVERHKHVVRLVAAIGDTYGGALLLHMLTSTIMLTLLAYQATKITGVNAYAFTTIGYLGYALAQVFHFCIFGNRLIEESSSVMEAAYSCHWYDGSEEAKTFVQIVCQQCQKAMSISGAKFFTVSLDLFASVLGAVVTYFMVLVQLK
Description: two-electrode voltage clamp, Xenopus oocytes on BdorOR88a/BdorOrco | half the maximal effective concentration

BdorOR63a-1/BdorOrco = target: T2, BdorOR63a-1/BdorOrco (Bactrocera dorsalis, UniProt A0A0G2UMW5); experiment: two-electrode voltage clamp, Xenopus oocytes; format: cell-based; conditions: weak response at 1 × 10^-3 M ME; co-expressed BdorOrco; holding potential -80 mV; Ringer's pH 7.6
T2 construct: gene OR63a-1; full-length OR63a-1 (1,248 nt, 415 aa) co-expressed with BdorOrco from pCS2+ cRNAs in Xenopus laevis oocytes; with Odorant receptor coreceptor
T2 sequence (A0A0G2UMW5 1-415): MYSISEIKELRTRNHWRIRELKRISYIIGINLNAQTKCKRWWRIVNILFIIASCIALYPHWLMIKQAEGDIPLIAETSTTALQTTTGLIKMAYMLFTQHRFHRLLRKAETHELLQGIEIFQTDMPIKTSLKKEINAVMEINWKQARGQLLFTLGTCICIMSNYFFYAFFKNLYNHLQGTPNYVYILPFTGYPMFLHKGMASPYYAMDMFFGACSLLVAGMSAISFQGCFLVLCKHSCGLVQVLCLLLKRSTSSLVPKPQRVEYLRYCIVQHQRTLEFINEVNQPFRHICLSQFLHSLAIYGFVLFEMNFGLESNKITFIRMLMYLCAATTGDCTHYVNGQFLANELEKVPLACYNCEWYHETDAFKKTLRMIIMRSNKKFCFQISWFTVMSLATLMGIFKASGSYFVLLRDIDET
T2 sequence (B2Z9Z0 1-473 partner): T1 sequence (B2Z9Z0 1-473 partner)

EC50 (BdorOR88a/BdorOrco): 28.3 µM | current at 1 × 10^-3 M (BdorOR63a-1/BdorOrco): ~ 30 nA
Compound: C=CCc1ccc(OC)c(OC)c1 [ME, methyl eugenol]

Reference: publication PMC6094957, “BdorOR88a Modulates the Responsiveness to Methyl Eugenol in Mature Males of Bactrocera dorsalis (Hendel)” (Frontiers in Physiology, 2018)
